Assay results published in US9758485B2, “Compounds for controlling arthropods” (priority 2013, dated 2017).
Read-outs that look alike come from different tables or passages of the source.

How the values were obtained:
Musca domestica = Musca domestica test; format: in vivo; conditions: application rate 100 ppm; adult houseflies; kill after 2 days
Outline: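 Compound in DMSO, diluted with water, applied to a sugar-solution sponge; vessels hold 10 adult houseflies. Percent mortality scored after 2 days.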

Boophilus microplus = Boophilus microplus - injection test; format: in vivo; conditions: Rhipicephalus microplus, 168 h; application rate 20 μg/animal; injected into engorged adult female ticks; laying of fertile eggs, after 7 days; read-out: efficacy
Outline: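 Engorged adult female Boophilus microplus ticks (5 per dose) each received a 1 μl abdominal injection of compound in DMSO and were held in a climate-controlled room. Efficacy was scored after 7 days from fertile egg laying, with unclear eggs kept until hatching (~42 days); 100% means no fertile eggs.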

Myzus persicae = Myzus persicae - spray test; format: in vivo; conditions: application rate 100 g/ha; Chinese cabbage leaf discs; after 6 days
Protocol: Myzus persicae—Spray Test
Solvent: 78 parts by weight of acetone and 1.5 parts by weight of dimethylformamide
(§1) Emulsifier: alkylaryl polyglycol ether
(§2) To produce an appropriate active ingredient formulation, 1 part by weight of active ingredient is dissolved using the specified parts by weight of solvent and made up with water containing an emulsifier concentration of 1000 ppm until the desired concentration is attained. To produce further test concentrations, the preparation is diluted with emulsifier-containing water.
Discs of Chinese cabbage leaves (Brassica pekinensis) infested by all stages of the green peach aphid (Myzus persicae) are sprayed with an active ingredient formulation of the desired concentration.
After 6 days, efficacy in % is determined. 100% means that all the aphids have been killed; 0% means that none of the aphids have been killed.

Tetranychus urticae = Tetranychus urticae - spray test, OP-resistant; format: in vivo; conditions: foliar, 144 h, application rate 100 g/ha, bean leaf discs, after 6 days, read-out: efficacy
Protocol: Tetranychus urticae—Spray Test, OP-Resistant
(§3) Solvent: 78.0 parts by weight of acetone and 1.5 parts by weight of dimethylformamide
as §1, §2
Discs of bean leaves (Phaseolus vulgaris) infested by all stages of the greenhouse red spider mite (Tetranychus urticae) are sprayed with an active ingredient formulation of the desired concentration.
After 6 days, efficacy in % is determined. 100% means that all the spider mites have been killed; 0% means that none of the spider mites have been killed.

Rhipicephalus sanguineus = Rhipicephalus sanguineus - in vitro contact tests with adult brown dog ticks; format: in vivo; conditions: application rate 5 μg/cm^2, after 48 h (dead or moribund)
Outline: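 Test compound was dissolved in acetone p.a. (9 mg in 1 ml, then diluted), and 250 μl were spread evenly over the inner surface of 25 ml test tubes on an orbital shaker at 30 rpm for 2 h. Once the solvent evaporated, 5-10 adult Rhipicephalus sanguineus ticks were sealed in, kept dark at room temperature, and after 48 h placed on a 45-50° C. hotplate to score dead or moribund ticks.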

Amblyomma hebraeum = Amblyomma hebraeum test (tick nymphs, immersion); format: in vivo; conditions: application rate 100 ppm; tick nymphs immersed for one minute; kill after 42 days
Outline: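 Tick nymphs immersed for one minute in compound diluted in water from a DMSO concentrate, then held on filter paper in a Petri dish in a climate-controlled cabinet. Kill (%) scored after 42 days; 100% means all ticks dead, 0% none.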

Spodoptera frugiperda = Spodoptera frugiperda - spray test; format: in vivo; conditions: foliar, 168 h, application rate 100 g/ha, caterpillars on maize leaf discs, after 7 days, read-out: efficacy
Protocol: Spodoptera frugiperda—Spray Test
as §3, §1, §2
Leaf discs of maize (Zea mays) are sprayed with an active ingredient formulation of the desired concentration and, after drying, populated with caterpillars of the armyworm (Spodoptera frugiperda).
After 7 days, efficacy in % is determined. 100% means that all the caterpillars have been killed; 0% means that no caterpillars have been killed.

Ctenocephalides felis = Ctenocephalides felis - oral test; format: in vivo; conditions: Ctenocephalides felis, po, 48 h; application rate 100 ppm in citrated cattle blood; adult fleas; kill after 2 days; read-out: efficacy
Outline: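 About 20 unfed adult cat fleas fed through a parafilm membrane on citrated cattle blood containing compound, dosed from a DMSO stock. Kill in % scored after 2 days; 100% means all fleas dead.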

Phaedon cochleariae = Phaedon cochleariae - spray test; format: in vivo; conditions: Phaedon cochleariae, foliar, 168 h; application rate 100 g/ha; larvae on Chinese cabbage leaf discs; after 7 days; read-out: efficacy
Protocol: Phaedon cochleariae—Spray Test
as §3, §1, §2
Discs of Chinese cabbage leaves (Brassica pekinensis) are sprayed with an active ingredient formulation of the desired concentration and, after drying, populated with larvae of the mustard beetle (Phaedon cochleariae).
After 7 days, efficacy in % is determined. 100% means that all the beetle larvae have been killed; 0% means that no beetle larvae have been killed.

[1] = logP determination by HPLC on a reversed-phase column (C18), EEC Directive 79/831 Annex V.A8; format: physicochemical

SMILES: Cc1cc(C(F)(C(F)(F)F)C(F)(F)F)cc(C)c1-n1cc(-c2ccc(Cl)c(C(=O)NC3CC3)c2)cn1 [I-T3-1, 2-chloro-N-cyclopropyl-5-[1-[2,6-dimethyl-4-[1,2,2,2-tetrafluoro-1-(trifluoromethyl)ethyl]phenyl]pyrazol-4-yl]benzamide]
- efficacy (Musca domestica): 100%
- pest or weed control at 0.02 mg (Boophilus microplus): 100%
- efficacy (Myzus persicae): 100%
- pest or weed control at 100 g/ha (Tetranychus urticae): 100%
- efficacy (Rhipicephalus sanguineus): 100%
- efficacy (Amblyomma hebraeum): 100%
- pest or weed control at 100 g/ha (Spodoptera frugiperda): 100%
- pest or weed control at 100 ppm (Ctenocephalides felis): 100%
- pest or weed control at 100 g/ha (Phaedon cochleariae): 100%
- chromatographic logP ([1]; reversed-phase HPLC column (C18), HPLC, reversed-phase C18, acetonitrile/water with formic acid, 55° C., read-out: logP): 4.36
- chromatographic logP ([1]; reversed-phase HPLC column (C18), HPLC-MS method a), Table I-T3; read-out: logP^a)): 4.4
- chromatographic logP ([1]; reversed-phase HPLC column (C18), HPLC-MS method a); read-out: logP^a)): 4.4
